Counter-ions that a name gives are not always drawn.
melting point: 140 °C
SMILES: NC(CS)CN1CCN(C(=O)c2cccc3ccccc23)Cc2ccccc21 (racemic) (as salt: hydrochloride) [Example 1, (+,−)-1-(2-Amino-3-mercaptopropyl)-2,3,4,5-tetrahydro-4-(naphthalenylcarbonyl)-1H-1,4-benzodiazepine, Monohydrochloride]
